Source: PubChem BioAssay AID200 (DTP/NCI, 2004)
“And” between values parts separate entries of the source, which are not always exact repeats. Identical values can stand only once. Toxic doses and inconclusive results are not listed. Where a SMILES comes first, the peptide text is derived from it.

Test system: B6C3F1 mice, B16 melanoma ip, median survival T/C
Assay: NCI In Vivo Anticancer Drug Screen. Data for tumor model B16 Melanoma (intraperitoneal) in B6C3F1 mice
Details: endpoint: median survival time, higher = longer survival
In short: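 Antitumor effect was judged in mice with transplanted tumors by dividing the treated group's survival measure by that of vehicle controls.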

[1] = dose: 12.5 mg/kg/injection, schedule: Q01DX009 (ip), vehicle: saline
[2] = dose: 25.0 mg/kg/injection, schedule: Q01DX009 (ip), vehicle: saline
[3] = dose: 1.5 mg/kg/injection, schedule: Q01DX009 (ip), vehicle: water
[4] = dose: 3.0 mg/kg/injection, schedule: Q01DX009 (ip), vehicle: water
[5] = dose: 6.0 mg/kg/injection, schedule: Q01DX009 (ip), vehicle: water
[6] = dose: 12.5 mg/kg/injection, schedule: Q01DX009 (ip), vehicle: saline with Tween-80
[7] = dose: 25.0 mg/kg/injection, schedule: Q01DX009 (ip), vehicle: saline with Tween-80
[8] = dose: 50.0 mg/kg/injection, schedule: Q01DX009 (ip), vehicle: saline with Tween-80
[9] = dose: 100.0 mg/kg/injection, schedule: Q01DX009 (ip), vehicle: saline with Tween-80
[10] = dose: 200.0 mg/kg/injection, schedule: Q01DX009 (ip), vehicle: saline with Tween-80
[11] = dose: 6.25 mg/kg/injection, schedule: Q01DX009 (ip), vehicle: saline
[12] = dose: 50.0 mg/kg/injection, schedule: Q01DX009 (ip), vehicle: saline

`CN(Cc1cnc2nc(N)nc(N)c2n1)c1c(Cl)cc(C(=O)NC(CCC(=O)O)C(=O)O)cc1Cl` (stereo unspecified) was tested, and the T/C [1] was 96 % of control and the T/C [2] was 91 % of control.

With `COc1cccc2c1C(=O)c1c(O)c3c(c(O)c1C2=O)C[C@@](O)(/C(C)=N/NC(N)=S)C[C@@H]3OC1CC(N)C(O)C(C)O1` (stereo partly specified) the T/C (dose: 12.5 mg/kg/injection, schedule: Q01DX001 (ip), vehicle: water) was 155 % of control and 166 % of control, the T/C (dose: 25.0 mg/kg/injection, schedule: Q01DX001 (ip), vehicle: water) was 185 % of control and 202 % of control and the T/C (dose: 50.0 mg/kg/injection, schedule: Q01DX001 (ip), vehicle: water) was 185 % of control and 220 % of control. The T/C (dose: 100.0 mg/kg/injection, schedule: Q01DX001 (ip), vehicle: water) was 201 % of control.

In the case of `c1ccc2c(c1)[As]=c1ccccc1=[As]2` (stereo unspecified), the T/C (dose: 0.75 mg/kg/injection, schedule: Q01DX009 (ip), vehicle: saline with Tween-80) is reported as 105 % of control, the T/C (dose: 1.5 mg/kg/injection, schedule: Q01DX009 (ip), vehicle: saline with Tween-80) is reported as 112 % of control and 103 % of control and the T/C (dose: 3.0 mg/kg/injection, schedule: Q01DX009 (ip), vehicle: saline with Tween-80) is reported as 107 % of control and 108 % of control. The T/C (dose: 6.0 mg/kg/injection, schedule: Q01DX009 (ip), vehicle: saline with Tween-80) was 115 % of control and 98 % of control, the T/C (dose: 12.0 mg/kg/injection, schedule: Q01DX009 (ip), vehicle: saline with Tween-80) was 122 % of control and the T/C (dose: 24.0 mg/kg/injection, schedule: Q01DX009 (ip), vehicle: saline with Tween-80) was 87 % of control.

With `CCCCCCCCCCS(=O)CC(CO)NC(=O)/C=C/c1c(C)[nH]c(=O)[nH]c1=O` (stereo unspecified) the T/C (dose: 0.37 mg/kg/injection, schedule: Q01DX009 (ip), vehicle: distilled water + Tween-80) was 106 % of control, the T/C (dose: 0.37 mg/kg/injection, schedule: Q01DX009 (ip), vehicle: water) was 106 % of control and the T/C (dose: 0.75 mg/kg/injection, schedule: Q01DX009 (ip), vehicle: distilled water + Tween-80) was 95 % of control. The T/C (dose: 0.75 mg/kg/injection, schedule: Q01DX009 (ip), vehicle: water) was 106 % of control, the T/C (dose: 1.5 mg/kg/injection, schedule: Q01DX009 (ip), vehicle: distilled water + Tween-80) was 94 % of control and the T/C [3] was 108 % of control. The T/C (dose: 3.0 mg/kg/injection, schedule: Q01DX009 (ip), vehicle: distilled water + Tween-80) was 100 % of control, the T/C [4] was 117 % of control and the T/C (dose: 6.0 mg/kg/injection, schedule: Q01DX009 (ip), vehicle: distilled water + Tween-80) was 109 % of control. For the same compound, the T/C [5] was 114 % of control.

With `Nc1nc(-c2ccc(Cl)cc2)c(Br)c(=O)[nH]1` the T/C (dose: 13.0 mg/kg/injection, schedule: Q01DX009 (ip), vehicle: saline with Tween-80) was 104 % of control, the T/C (dose: 26.0 mg/kg/injection, schedule: Q01DX009 (ip), vehicle: saline with Tween-80) was 110 % of control and the T/C (dose: 52.0 mg/kg/injection, schedule: Q01DX009 (ip), vehicle: saline with Tween-80) was 98 % of control. The T/C (dose: 104.0 mg/kg/injection, schedule: Q01DX009 (ip), vehicle: saline with Tween-80) was 120 % of control.

For `CN1C(=O)NC(c2ccc(Cl)cc2)(c2ccc(Cl)cc2)C1=O`, the T/C [6] was 105 % of control, the T/C [7] was 100 % of control and the T/C [8] was 99 % of control. For the same compound, the T/C [9] was 99 % of control, the T/C [10] was 103 % of control and the T/C (dose: 400.0 mg/kg/injection, schedule: Q01DX009 (ip), vehicle: saline with Tween-80) was 99 % of control.

For `CSC(SC)=C1C(=O)NC(=O)NC1=O`, the T/C (dose: 3.12 mg/kg/injection, schedule: Q01DX009 (ip), vehicle: saline) was 111 % of control, the T/C [11] was 101 % of control and the T/C [1] was 90 % of control. The T/C [2] was 96 % of control.

With `CC1CCC(NC(=O)N(CCCl)N=O)CC1` (stereo unspecified) the T/C (dose: 2.5 mg/kg/injection, schedule: Q01DX005 (ip), vehicle: other) was 114 % of control, the T/C (dose: 2.5 mg/kg/injection, schedule: Q01DX005 (iv), vehicle: other) was 107 % of control and the T/C (dose: 4.0 mg/kg/injection, schedule: Q04DX002 (ip), vehicle: other) was 98 % of control. For the same compound, the T/C (dose: 5.0 mg/kg/injection, schedule: Q01DX005 (ip), vehicle: other) was 151 % of control, the T/C (dose: 8.0 mg/kg/injection, schedule: Q04DX002 (ip), vehicle: other) was 113 % of control and the T/C (dose: 10.0 mg/kg/injection, schedule: Q01DX001 (iv), vehicle: other) was 111 % of control. The T/C (dose: 10.0 mg/kg/injection, schedule: Q01DX005 (ip), vehicle: other) was 294 % of control, the T/C (dose: 16.0 mg/kg/injection, schedule: Q04DX002 (ip), vehicle: other) was 165 % of control and the T/C (dose: 20.0 mg/kg/injection, schedule: Q01DX001 (ip), vehicle: other) was 162 % of control. The T/C (dose: 20.0 mg/kg/injection, schedule: Q01DX001 (iv), vehicle: other) was 168 % of control, the T/C (dose: 32.0 mg/kg/injection, schedule: Q04DX002 (ip), vehicle: other) was 76 % of control and the T/C (dose: 40.0 mg/kg/injection, schedule: Q01DX001 (ip), vehicle: other) was 223 % of control. For the same compound, the T/C (dose: 40.0 mg/kg/injection, schedule: Q01DX001 (iv), vehicle: other) was 222 % of control.

With `CN(N=O)C(=O)N[C@@H](C=O)[C@@H](O)[C@H](O)[C@H](O)CO` the T/C (dose: 12.5 mg/kg/injection, schedule: Q01DX009 (ip), vehicle: other) was 115 % of control and the T/C (dose: 25.0 mg/kg/injection, schedule: Q01DX009 (ip), vehicle: other) was 120 % of control.

In the case of `O=C(O)CNC(=O)c1ccccc1`, the T/C (dose: 40.0 mg/kg/injection, schedule: Q01DX009 (ip), vehicle: saline with Tween-80) is reported as 96 % of control and the T/C (dose: 80.0 mg/kg/injection, schedule: Q01DX009 (ip), vehicle: saline with Tween-80) is reported as 95 % of control.

For `CC(C)CC(NC(=O)CNC(=O)C(CC(C)C)NC(=O)CN)C(=O)O` (stereo unspecified) (H-GLGL-OH; configuration not given here), the T/C (dose: 100.0 mg/kg/injection, schedule: Q01DX009 (ip), vehicle: Klucel (hydroxypropylcellulose) (HPC)) was 120 % of control, the T/C (dose: 200.0 mg/kg/injection, schedule: Q01DX009 (ip), vehicle: Klucel (hydroxypropylcellulose) (HPC)) was 118 % of control and the T/C (dose: 400.0 mg/kg/injection, schedule: Q01DX009 (ip), vehicle: Klucel (hydroxypropylcellulose) (HPC)) was 122 % of control.

In the case of `CCOC(=O)[C@]1(Br)CC[C@@]1(Br)C(=O)OCC`, the T/C [6] is reported as 108 % of control and 104 % of control, the T/C [7] is reported as 110 % of control and 105 % of control and the T/C [8] is reported as 98 % of control and 106 % of control. The T/C [9] was 100 % of control and 107 % of control and the T/C [10] was 110 % of control and 105 % of control.

`CCCCCCCC(=O)N/N=C(\CO)[C@]1(O)Cc2c(O)c3c(c(O)c2[C@@H](OC2CC(N)C(O)C(C)O2)C1)C(=O)c1c(OC)cccc1C3=O` (stereo partly specified) was tested, and the T/C (dose: 1.5 mg/kg/injection, schedule: Q01DX009 (ip), vehicle: saline) was 154 % of control, the T/C [3] was 171 % of control and the T/C (dose: 3.0 mg/kg/injection, schedule: Q01DX009 (ip), vehicle: saline) was 196 % of control. The T/C [4] was 199 % of control, the T/C (dose: 6.0 mg/kg/injection, schedule: Q01DX009 (ip), vehicle: saline) was 216 % of control and the T/C [5] was 320 % of control. The T/C (dose: 12.0 mg/kg/injection, schedule: Q01DX009 (ip), vehicle: saline) was 208 % of control, the T/C (dose: 12.0 mg/kg/injection, schedule: Q01DX009 (ip), vehicle: water) was 320 % of control and the T/C (dose: 24.0 mg/kg/injection, schedule: Q01DX009 (ip), vehicle: saline) was 208 % of control.

In the case of `CCCCCCCCCCCCOP(N)(=O)OCCCCCCCCCCCC`, the T/C [2] is reported as 100 % of control, the T/C [12] is reported as 90 % of control and the T/C (dose: 100.0 mg/kg/injection, schedule: Q01DX009 (ip), vehicle: saline) is reported as 89 % of control.

With `COc1cc2c(oc(=O)c3cc(C)cc(OC)c32)c2c(C3OC(C)C(O)C(C)(O)C3O)ccc(O)c12` (stereo unspecified) the T/C (dose: 1.56 mg/kg/injection, schedule: Q01DX009 (ip), vehicle: DMSO) was 94 % of control and 103 % of control, the T/C (dose: 3.12 mg/kg/injection, schedule: Q01DX009 (ip), vehicle: DMSO) was 109 % of control and 107 % of control and the T/C (dose: 6.0 mg/kg/injection, schedule: Q01DX009 (ip), vehicle: DMSO) was 88 % of control. The T/C (dose: 6.25 mg/kg/injection, schedule: Q01DX009 (ip), vehicle: DMSO) was 119 % of control and 96 % of control and 104 % of control, the T/C (dose: 12.0 mg/kg/injection, schedule: Q01DX009 (ip), vehicle: DMSO) was 96 % of control and the T/C (dose: 12.5 mg/kg/injection, schedule: Q01DX009 (ip), vehicle: DMSO) was 121 % of control.

In the case of `Cc1ncc(O)c(CO)c1O`, the T/C (dose: 0.78 mg/kg/injection, schedule: Q01DX009 (ip), vehicle: saline) is reported as 102 % of control, the T/C (dose: 1.56 mg/kg/injection, schedule: Q01DX009 (ip), vehicle: saline) is reported as 102 % of control and the T/C (dose: 3.13 mg/kg/injection, schedule: Q01DX009 (ip), vehicle: saline) is reported as 99 % of control. The T/C [11] was 105 % of control, the T/C [1] was 101 % of control and the T/C [2] was 91 % of control. For the same compound, the T/C [12] was 96 % of control.
